Data published in Sander's compilation of Henry's law constants (doi:10.1021/ac00070a008).

Assay: Henry solubility constant Hcp at 298.15 K (mol/(m3 Pa))
Settings: reference: Li et al. (1993)

Row | Compound | Henry solubility constant Hcp
1 | CCCCc1ccccc1 [butylbenzene] | 0.00067
2 | Cc1cc(C)cc(C)c1 [1,3,5-trimethylbenzene] | 0.0014
3 | ClCCl [dichloromethane] | 0.0038
4 | CC(C)OC(C)C [diisopropyl ether] | 0.0044
5 | CCCCCl [1-chlorobutane] | 0.00053
6 | ClC(Cl)=C(Cl)Cl [tetrachloroethene] | 0.00063
7 | Cc1cccc(C)c1 [1,3-dimethylbenzene] | 0.0015
8 | CCCc1ccccc1 [propylbenzene] | 0.00091
9 | CCCCCCl [1-chloropentane] | 0.00042
10 | CCC(C)Br (stereo unspecified) [2-bromobutane] | 0.00077
11 | CCCOCCC [dipropyl ether] | 0.0029
12 | CC(C)Cl [2-chloropropane] | 0.00054
13 | CC(C)c1ccccc1 [(2-propyl)-benzene] | 0.00089
14 | CCI [iodoethane] | 0.0014
15 | CC(Cl)(Cl)Cl [1,1,1-trichloroethane] | 0.00057
16 | Cc1ccccc1C [1,2-dimethylbenzene] | 0.0021
17 | CCCI [1-iodopropane] | 0.0011
18 | Cc1ccc(C)cc1 [1,4-dimethylbenzene] | 0.0014
19 | CC(C)Br [2-bromopropane] | 0.00084
20 | CCCCCCCl [1-chlorohexane] | 0.00031
21 | CCc1ccccc1 [ethylbenzene] | 0.0013
22 | Cc1ccccc1 [methylbenzene] | 0.0016
23 | c1ccccc1 [benzene] | 0.0018
24 | CCCBr [1-bromopropane] | 0.0011
25 | ClC=C(Cl)Cl [trichloroethene] | 0.001
26 | CCBr [bromoethane] | 0.0013
